# Patent US5990276A, “Synthetic inhibitors of hepatitis C virus NS3 protease” (Schering Corporation, priority 1997, dated 1999)
# Square brackets hold non-standard residues; d marks the D form. Peptide text beside a SMILES is read from it. * marks the point of attachment. Biotin = O=C1N[C@H]2[C@H](CS[C@H]2CCCCC(=O)*)N1
# Target: T1, HCV NS3 protease (Hepatitis C virus genotype 1a, UniProt P27958)
# T1 construct: HT (hydrophilic solubilizing tail) (C); made in house; host or cells: E. coli M15 [pREP4]
# T1 sequence (P27958 1028-1209): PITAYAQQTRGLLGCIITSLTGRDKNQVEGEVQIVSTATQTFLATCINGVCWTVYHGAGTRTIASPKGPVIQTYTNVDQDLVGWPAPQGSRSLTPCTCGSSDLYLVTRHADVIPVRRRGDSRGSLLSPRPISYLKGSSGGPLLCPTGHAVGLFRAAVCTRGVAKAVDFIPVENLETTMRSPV
# Test: HPLC assay of inhibition of HCV NS3 protease cleavage of the 5A/5B substrate
# Format: biochemical
# Details: Example 2; separate method not given; read-out: IC50, monovalent inhibitors of the HCV NS3 protease
# Experimental: Into an aqueous solution containing 25 mM TRIS, 50 mM NaCl, 0.5 mM EDTA, 10% glycerol and 0.1% NP40 was placed the potential inhibitor, the HCV NS3 protease at a concentration of 0.05 μM-[…], the HCV NS4A cofactor at a concentration of 0.05 μM-0.1 μM and the 5A/5B substrate at a concentration of 50 μM. This solution was then incubated for approximately 2 hours at 30° C. after which the solution was applied to an HPLC to determine if the 5A/5B remained intact and thus the compound was determined to be an inhibitor. […] The potential inhibitors were assayed at several different concentrations to determine the concentration which produced 50% inhibition of the HCV NS3 protease.
row,Compound,IC50
1,"CC[C@@H](C)[C@@H](NC(=O)[C@H](NC(=O)[C@@H](CC(C)C)NC(=O)[C@@H](CO)NC(C)=O)C(C)C)C(=O)N[C@H](CCCNC(=N)N)C(=O)NCC(=O)N[C@@H](C(=O)N[C@@H](C(=O)N[C@@H](C(N)=O)C(C)C)[C@H](C)CC)C(C)C [SEQ ID NO.: 12, Ser-Leu-Val-Ile-Arg-Gly-Val-Ile-Val]",0.6 µM
2,"CC[C@@H](C)[C@@H](NC(=O)[C@H](NC(=O)[C@@H](CC(C)C)NC(=O)[C@@H](CO)NC(=O)CNC(=O)[C@@H](CCCCN)NC(C)=O)C(C)C)C(=O)N[C@H](CCCNC(=N)N)C(=O)NCC(=O)N[C@@H](C(=O)N[C@@H](C(=O)N[C@@H](C(=O)N[C@@H](C(=O)N[C@H](CS)C(N)=O)C(C)C)C(C)C)[C@H](C)CC)C(C)C [SEQ ID NO.: 13, Lys-Gly-Ser-Leu-Val-Ile-Arg-Gly-Val-Ile-Val-Val-Cys]",2 µM
3,"CC[C@@H](C)[C@@H](NC(=O)[C@H](NC(=O)[C@@H](CC(C)C)NC(=O)[C@@H](CO)NC(=O)CNC(=O)[C@@H](CCCCN)NC(=O)CCCC[C@@H]1SC[C@@H]2NC(=O)N[C@@H]21)C(C)C)C(=O)N[C@H](CCCNC(=N)N)C(=O)NCC(=O)N[C@@H](C(=O)N[C@@H](C(=O)N[C@@H](C(=O)N[C@@H](C(=O)N[C@H](CS)C(=O)N[C@@H](CCCCN)C(=O)N[C@@H](CCCCN)C(=O)O)C(C)C)C(C)C)[C@H](C)CC)C(C)C [SEQ ID NO.: 14, Xaa-Lys-Gly-Ser-Leu-Val-Ile-Arg-Gly-Val-Ile Val-Val-Cys-Lys-Lys] (Biotin-[dK]G[dS][dL][dV][dI][dR]G[dV][dI][dV][dV][dC]KK-OH)",0.4 µM
